Molecular target: T1, Menin-MLL (Homo sapiens, UniProt O00255)
T1 construct: His-Menin (M1-L615 end); purchased BIORTUS BP9210
T1 sequence (O00255 1-615 isoform O00255-1): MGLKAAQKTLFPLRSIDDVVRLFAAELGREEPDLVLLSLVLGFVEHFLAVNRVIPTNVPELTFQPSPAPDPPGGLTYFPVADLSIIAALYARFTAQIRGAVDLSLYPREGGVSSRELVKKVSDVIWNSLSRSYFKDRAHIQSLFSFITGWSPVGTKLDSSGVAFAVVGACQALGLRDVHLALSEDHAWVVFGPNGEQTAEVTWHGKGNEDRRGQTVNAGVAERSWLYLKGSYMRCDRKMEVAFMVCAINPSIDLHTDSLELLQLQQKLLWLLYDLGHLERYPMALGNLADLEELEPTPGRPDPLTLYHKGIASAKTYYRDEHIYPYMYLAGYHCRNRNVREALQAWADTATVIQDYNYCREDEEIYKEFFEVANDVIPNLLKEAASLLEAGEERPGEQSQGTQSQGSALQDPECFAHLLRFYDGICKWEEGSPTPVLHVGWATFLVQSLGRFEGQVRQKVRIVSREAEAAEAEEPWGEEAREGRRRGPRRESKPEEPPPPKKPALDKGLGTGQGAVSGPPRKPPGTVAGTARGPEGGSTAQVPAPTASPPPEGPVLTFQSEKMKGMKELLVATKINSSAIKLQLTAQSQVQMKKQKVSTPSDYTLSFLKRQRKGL
Assay: Inhibitory activity against Menin-MLL binding (fluorescence polarization)
Details: Menin-MLL IC50, fluorescence polarization; 150 nM His-Menin, 15 nM FITC-MLL; 25°C for 60 min
Procedure, shortened: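 His-Menin (M1-L615, 150 nM) preincubated with compound 15 min at 25 °C in HEPES pH 7.5, 50 mM NaCl, 1 mM DTT, 0.01% BSA, then 15 nM FITC-MLL4-43 peptide added for 60 min at 25 °C. Fluorescence polarization read; IC50 from 4-parameter logistic fit, duplicates.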

| Structure (SMILES) | IC50 |
| --- | --- |
| Cc1nc(F)c2c(-c3ccc(F)cc3C(=O)N3CCOC[C@H]3C)cc(C3CN([C@@H](C)C4CCN(C(=O)[C@@H]5C[C@@H]5F)CC4)C3)cn12 [Example 303] | 5 nM |
| CCN(C(=O)c1cc(F)ccc1-c1cc(C2CN(C(=O)[C@@H](NC)C3CCCC3)C2)cn2c(C)nc(F)c12)C(C)C [Example 317] | 92 nM |
| CCS(=O)(=O)N[C@H]1CC[C@H](CN2CC(c3cc(-c4ccc(F)cc4C(=O)N4CCOC[C@H]4C)c4cnn(C)c4c3)C2)CC1 [Example 159, N-[(1r,4r)-4-{[3-(4-{4-fluoro-2-[(3R)-3-methylmorpholin-4-carbonyl]phenyl}-1-methyl-1H-indazol-6-yl)azacyclobutan-1-yl]methyl}cyclohexyl]ethan-1-sulfonamide] | 69 nM |

Same assay, conditions: fluorescence polarization; 150 nM His-Menin, 15 nM FITC-MLL; 25°C for 60 min; read-out: Menin-MLL IC50

| Structure (SMILES) | IC50 |
| --- | --- |
| CCS(=O)(=O)N[C@@H]1CC[C@@H](CN2CCC(c3cc(-c4ccc(F)cc4C(=O)N(CC(F)F)C(C)C)c4cnc(C)n4c3)C2)OC1 (stereo partly drawn) [Example 163, N-(2,2-difluoroethyl)-2-[6-(1-{[(2S,5R)-5-ethanesulfonamidooxacyclohexan-2-yl]methyl}pyrrolidin-3-yl)-3-methylimidazo[1,5-a]pyridin-8-yl]-5-fluoro-N-(isopropyl)benzamide] | 38 nM |
| CCN(C(=O)c1cc(F)ccc1-c1cc(C2CN([C@@H](CCCN3CCN(CCO)CC3)C(C)C)C2)cc2c1cnn2C)C(C)C [Example 400-1] | 220 nM |
| COCC(C1CCOCC1)N1CC(c2cc(-c3ccc(F)cc3C(=O)N3CCOC[C@H]3C)c3cnc(C)n3c2)C1 (some centres unmarked) [Example 256] | 189 nM |
| CCN(C(=O)c1cc(F)ccc1-c1cc(C2CCN(C[C@]3(O)CC[C@@H](NC(=O)OC(C)(C)C)CC3)C2)cc2c1cnn2C)C(C)C (some centres unmarked) [Compound 54, N-[(1s,4s)-4-{[3-(4-{2-[ethyl(isopropyl)aminoformyl]-4-fluorophenyl}-1-methyl-1H-indazol-6-yl)pyrrolidin-1-yl]methyl}-4-hydroxylcyclohexyl]tert-butyl carbamate] | 105 nM |
| CC(=O)N1CCC([C@@H](C)N2CC(c3cc(-c4ccc(F)cc4C(=O)N4CCOC[C@H]4C)c4c(F)nc(C)n4c3)C2)CC1 [Example 257-1, 1-{4-[(1R)-1-[3-(1-fluoro-8-{4-fluoro-2-[(3R)-3-methylmorpholin-4-carbonyl]phenyl}-3-methylimidazo[1,5-a]pyridin-6-yl)azacyclobutan-1-yl]ethyl]piperidin-1-yl}ethan-1-one] | 131 nM |
| COC1(CN2CC(c3cc(-c4ccc(F)cc4C(=O)N4CCOC[C@H]4C)c4c(F)nc(C)n4c3)C2)CCOCC1 [Example 236] | 180 nM |
| CCN(C(=O)c1cc(F)ccc1-c1cc(N2CCN(C(=O)[C@@H]3Cc4ccccc4CN3)CC2)cn2c(C)nc(Cl)c12)C(C)C [Example 116] | 52 nM |
| CCS(=O)(=O)N[C@@H]1CC[C@@H](CN2CC(c3cc(-c4ccc(F)cc4C(=O)N(CC(F)F)C(C)C)c4cnn(C)c4c3)C2)OC1 [Example 152, N-(2,2-difluoroethyl)-2-[6-(1-{[(2S,5R)-5-ethanesulfonamidooxacyclohexan-2-yl]methyl}azacyclobutan-3-yl)-1-methyl-1H-indazol-4-yl]-5-fluoro-N-(isopropyl)benzamide] | 74.5 nM |
| CC(=O)N1CCC(CN2CC(Cc3cc(-c4ccc(F)cc4C(=O)N4[C@H](C)COC[C@H]4C)c4c(F)nc(C)n4c3)C2)CC1 [Example 228] | 130 nM |
| CCN(C(=O)c1cc(F)ccc1-c1cc(C2CN([C@H](CN3CCN(CCOC)CC3)C(C)C)C2)cc2c1cnn2C)C(C)C [Example 422] | 29 nM |

More lines, now with the values ahead:

| IC50 | Structure (SMILES) |
| --- | --- |
| 271 nM | CC(C)N(CC(F)F)C(=O)c1cc(F)ccc1-c1cc(C2CCN(CCN3CCC(NC(=O)OC(C)(C)C)CC3)C2)cc2c1cnn2C (racemic) [Example 166, N-(1-{2-[3-(4-{2-[(2,2-difluoroethyl)(isopropyl)aminoformyl]-4-fluorophenyl}-1-methyl-1H-indazol-6-yl)pyrrolidin-1-yl]ethyl}piperidin-4-yl)tert-butyl carbamate] |
| 168 nM | CCN(C(=O)c1cc(F)ccc1-c1cc(C2(F)CN(C(=O)[C@H]3N[C@@H]4CC[C@H]3C4)C2)cn2cncc12)C(C)C [Example 34, 2-(6-{1-[(1R,3S,4S)-2-azabicyclo[2.2.1]heptan-3-carbonyl]-3-fluoroazacyclobutan-3-yl}imidazo[1,5-a]pyridin-8-yl)-N-ethyl-5-fluoro-N-(isopropyl)benzamide] |
| 110 nM | CCN(C(=O)c1cc(F)ccc1-c1cc(C2CN([C@@H](CN3CCN(C)CC3)C(C)C)C2)cc2c1cnn2C)C(C)C [Example 402-1, N-ethyl-5-fluoro-2-(1-methyl-6-{1-[(2R)-3-methyl-1-(4-methylpiperazin-1-yl)butan-2-yl]azacyclobutan-3-yl}-1H-indazol-4-yl)-N-(isopropyl)benzamide] |
| 86 nM | C[C@@H]1COCCN1C(=O)c1cc(F)ccc1-c1cc(C2CN(CC3CCN(C(=O)C4(O)CC4)CC3)C2)cc2c1cnn2C [Example 171, 1-(4-{[3-(4-{4-fluoro-2-[(3R)-3-methylmorpholin-4-carbonyl]phenyl}-1-methyl-1H-indazol-6-yl)azacyclobutan-1-yl]methyl}piperidin-1-carbonyl)cyclopropan-1-ol] |
| 57 nM | CCS(=O)(=O)N[C@H]1CC[C@H](CN2CC(c3cc(-c4ccc(F)cc4C(=O)N4CCC[C@H]4C)c4cnn(C)c4c3)C2)CC1 [Example 167] |
| 48 nM | Cc1nc(F)c2c(-c3ccc(F)cc3C(=O)N3CCOC[C@H]3C)cc(C3CN(CC4CCN(C(=O)C5(C#N)CC5)CC4)C3)cn12 [Example 254] |
| 39 nM | CCC(=O)N1CCC([C@H](C)N2CC(c3cc(-c4ccc(F)cc4C(=O)N4CCOC[C@H]4C)c4cnc(C)n4c3)C2)CC1 [Example 319-1, 1-{4-[(1S)-1-[3-(8-{4-fluoro-2-[(3R)-3-methylmorpholin-4-carbonyl]phenyl}-3-methylimidazo[1,5-a]pyridin-6-yl)azacyclobutan-1-yl]ethyl]piperidin-1-yl}propan-1-one] |
| 15 nM | Cc1nc(F)c2c(-c3ccc(F)cc3C(=O)N3CCOC[C@H]3C)cc(C3CN(C[C@H]4CC[C@@H](c5cnn(C)c5)CC4)C3)cn12 [Example 276-1, (3R)-4-{5-fluoro-2-[1-fluoro-3-methyl-6-(1-{[(1s,4s)-4-(1-methyl-1H-pyrazol-4-yl)cyclohexyl]methyl}azacyclobutan-3-yl)imidazo[1,5-a]pyridin-8yl]benzoyl}-3-methylmorpholine] |
| 14 nM | CCN(C(=O)c1cc(F)ccc1-c1cc(C2CCN(CC3(O)CCC(NC(=O)OC(C)(C)C)CC3)C2)cn2c(C)ncc12)C(C)C (centres unmarked) [Compound 50, N-(4-{[3-(8-{2-[ethyl(isopropyl)aminoformyl]-4-fluorophenyl}-3-methylimidazo[1,5-a]pyridin-6-yl)pyrrolidin-1-yl]methyl}-4-hydroxylcyclohexyl)tert-butyl carbamate] |
| 2.7 nM | CCS(=O)(=O)NC1CCC(CN2CC(c3cc(-c4ccc(F)cc4C(=O)N(CC(F)F)C(C)C)c4cnccn34)C2)CC1 (centres unmarked) [Example 143, N-(2,2-difluoroethyl)-2-(6-{1-[(4-ethanesulfonamidocyclohexyl)methyl]azacyclobutan-3-yl}pyrrolo[1,2-a]pyrazin-8-yl)-5-fluoro-N-(isopropyl)benzamide] |

— patent EP4782453A1 (Beyang Therapeutics Co., Ltd., priority 2023, dated 2025)
